{"source": "patent US20120289452A1", "about": "“COMPOSITIONS AND METHODS FOR TREATING AND PREVENTING NECROSIS” (Ilana Nathan, priority 2002, published 2012)", "key": {"U-937 cells [1]": {"test_system": "U-937 cells", "assay": "STS plus oligomycin-induced cell killing in U-937 cells, trypan blue exclusion", "format": "cell-based, Human", "procedure": "(§1) Human promonocytic U-937 cells in logarithmic phase were seeded at a concentration of 4×10^5/ml. Afterwards the cells were washed twice and seeded again in glucose-free RPMI-1640 medium (Beit Haemek, Israel) supplemented with 2 mM pyruvate (Beit Haemek, Israel) and 10% dialyzed FCS (Gibco, BRL) for one hour.\n(§2) The rat pheochromocytoma PC-12 cell line was propagated in DMEM medium (Gibco, BRL), supplemented with 5% heat-inactivated calf serum, 10% heat-inactivated horse serum, and 2 mM L-glutamine. […]. Then the cells were washed twice and maintained in glucose-free RPMI-1640 medium (Beit Haemek, Israel), and supplemented with 2 mM pyruvate and 10% dialyzed FCS for one hour. U-937 and PC-12 cells were incubated with and without 1 μM oligomycin (Sigma) for 45 min, and cells were treated with or without 1.25 μM staurosporine (STS) (Sigma) for an additional seven hours in U-937 cells or five hours in PC-12 cells. Alternatively, cells were treated with or without 100 ng/ml anti-Fas (Upstate biotechnology, USA) for the same time period.\n200 μM elastase inhibitor III (MeOSuc-Ala-Ala-Pro-Val-CMK from Calbiochem) when added was administered 30 min before addition of the inducers. […]\nAt each time point, cell viability was determined by the trypan blue exclusion method (Daniel C P, Parreira A., et al. Leukemia Res. 11:191-196 (1987). Assays were performed in duplicate."}, "PC-12 cells [2]": {"test_system": "PC-12 cells", "assay": "STS plus oligomycin-induced necrosis in PC-12 cells, morphological quantification", "format": "cell-based, rat", "procedure": "as §2\n[…] The inhibitor was dissolved in DMSO to a concentration of 100 mM. The final concentration of DMSO in the system was 0.2%, and was added to all treatments. In separate experiments, 200 μM of an elastase inhibitor (CE1037, manufactured by Cortech Inc.) was administered 30 min before addition of the inducers. The inhibitor was dissolved in PBS.\n(§3) Cells undergoing morphological changes associated with apoptotic or necrotic cell death were monitored as described by McGahon et al. [Methods Cell Biol, 46: p. 153-85 (1995)]. Briefly, 1 ml of the cells was collected and centrifuged. The pellet was resuspended in a 20-fold dilution of the dye mixture (composed of 100 μg/ml acridine orange and 100 μg/ml ethidium bromide in PBS), placed on a glass slide and viewed on an inverted fluorescence microscope. A minimum of 200 cells was scored for each sample."}, "PC-12 cells [3]": {"test_system": "PC-12 cells", "assay": "KCN-induced necrosis in PC-12 cells, morphological quantification", "format": "cell-based, rat", "procedure": "The rat pheochromocytoma PC-12 cell line was propagated in DMEM medium (Gibco, BRL), supplemented with 5% heat-inactivated calf serum, 10% heat-inactivated horse serum, and 2 mM L-glutamine. PC-12 cells in logarithmic phase were seeded at a concentration of 1.2×10^5/well in 24-well plates (Cellstar). Then the cells were washed twice and maintained in glucose-free RPMI-1640 medium (Beit Haemek, Israel), and supplemented with 2 mM pyruvate and 10% dialyzed FCS for one hour. […] Alternatively, cells were treated with or without 100 ng/ml anti-Fas (Upstate biotechnology, USA) for the same time period. U-937 and PC-12 cells cultured in complete RPMI-1640 medium were washed and seeded in glucose-free RPMI-1640 medium, as described above, and treated with or without 0.5 mM KCN (Merck, Germany) for seven hours with U-937 cells, or for five hours with PC-12 cells. […] Cells undergoing morphological changes associated with apoptotic or necrotic cell death were monitored as described by McGahon et al. [Methods Cell Biol, 46: p. […] The pellet was resuspended in a 20-fold dilution of the dye mixture (composed of 100 μg/ml acridine orange and 100 μg/ml ethidium bromide in PBS), placed on a glass slide and viewed on an inverted fluorescence microscope. A minimum of 200 cells was scored for each sample."}, "PC-12 cells [4]": {"test_system": "PC-12 cells", "assay": "STS-induced apoptosis in PC-12 cells, morphological quantification", "format": "cell-based, rat", "procedure": "as §2\n(§4) 200 μM elastase inhibitor III (MeOSuc-Ala-Ala-Pro-Val-CMK from Calbiochem) when added was administered 30 min before addition of the inducers. The inhibitor was dissolved in DMSO to a concentration of 100 mM. The final concentration of DMSO in the system was 0.2%, and was added to all treatments. In separate experiments, 200 μM of an elastase inhibitor (CE1037, manufactured by Cortech Inc.) was administered 30 min before addition of the inducers. The inhibitor was dissolved in PBS.\nas §3"}, "U-937 cells [5]": {"test_system": "U-937 cells", "assay": "Anti-Fas-induced apoptosis/necrosis in U-937 cells, morphological quantification (acridine orange/ethidium bromide)", "format": "cell-based, Human", "conditions": "for effect on anti-Fas-induced apoptotic and necrotic cell death: anti-Fas with or without oligomycin, inhibitor added", "procedure": "as §1, §2, §4, §3"}, "elastase-like activity [6]": {"test_system": "elastase-like activity", "assay": "Gelatin substrate gel electrophoresis of lysates of U-937 cells treated with KCN and elastase inhibitor", "format": "cell-based, Human", "conditions": "5 mM KCN, 200 μM elastase inhibitor, 3 h"}, "elastase-like activity [7]": {"test_system": "elastase-like activity", "assay": "Gelatin substrate gel electrophoresis of U-937 cell lysates, gel incubated with protease inhibitors", "format": "biochemical, Human", "conditions": "100 μM inhibitor in gel incubation"}, "U-937 cells [8]": {"test_system": "U-937 cells", "conditions": "elastase inhibitor III without KCN"}, "[9]": {"conditions": "1.25 μM STS with 1 μM oligomycin, 100 μM elastase inhibitor"}, "[10]": {"conditions": "lysate of U-937 cells treated with 0.5 mM KCN for 3 h"}, "[11]": {"conditions": "lysate of U-937 cells treated with anti-Fas and oligomycin for 3 h"}}, "note": "Residues, ends and D or L forms follow the SMILES beside them. *: point of attachment. MeOSuc = COC(=O)CCC(=O)*; CH2Cl = ClC*"}
{"smiles": "CC(C)(CS(=O)(=O)c1ccc(OC(=O)C(C)(C)c2ccc(C(C)(C)C(=O)Oc3ccc(S(=O)(=O)CC(C)(C)C(=O)O)cc3)cc2)cc1)C(=O)O", "note": "[CE1037]", "values": [{"measurement": "effect of inhibitor by itself on cell survival", "setting": "U-937 cells [1]; 48 hours, inhibitor alone", "value": "slight effect by itself"}, {"measurement": "effect on cell killing induced by STS and oligomycin (cell viability, trypan blue)", "setting": "U-937 cells [1]; prolonged incubation of 48 hours", "value": "significantly inhibited cell killing"}, {"measurement": "necrotic cell death", "setting": "PC-12 cells [2]; [9]", "value": 9, "unit": "%"}, {"measurement": "necrotic cell death shifted to apoptotic cell death", "setting": "PC-12 cells [2]; [9]", "value": 39, "unit": "%"}, {"measurement": "effect on necrosis induced by STS", "setting": "PC-12 cells [2]; 1.25 μM STS with 1 μM oligomycin, 200 μM elastase inhibitor", "value": "completely abrogated necrosis"}, {"measurement": "effect of inhibitor by itself", "setting": "PC-12 cells [2]; 200 μM elastase inhibitor alone", "value": "inactive by itself"}, {"measurement": "effect of inhibitor by itself", "setting": "PC-12 cells [3]; 200 μM inhibitor without KCN", "value": "inactive by itself"}, {"measurement": "effect on necrosis induced by KCN", "setting": "PC-12 cells [3]; 0.5 mM KCN, 200 μM inhibitor", "value": "significantly inhibited necrosis"}, {"measurement": "effect on apoptosis induced by STS", "setting": "PC-12 cells [4]; 1.25 μM STS, 200 μM elastase inhibitor", "value": "significantly inhibited apoptosis"}, {"measurement": "effect of inhibitor by itself", "setting": "PC-12 cells [4]; 200 μM elastase inhibitor without STS", "value": "inactive by itself"}, {"measurement": "effect on anti-Fas-induced apoptotic and necrotic cell death", "setting": "U-937 cells [5]", "value": "completely abrogated apoptotic as well as necrotic cell death"}, {"measurement": "band of protease activity when KCN administered with inhibitor", "setting": "elastase-like activity [6]", "value": "disappeared"}]}
{"smiles": "CC[C@H]1/C=C/C=C/C[C@@H](C)[C@H](O)[C@@](C)(O)C(=O)[C@@H](C)[C@H](O)[C@@H](C)C(=O)[C@@H](C)[C@H](O)[C@@H](C)/C=C/C(=O)O[C@@H]2[C@H](C)[C@H](CC1)O[C@]1(CC[C@H](C)[C@H](C[C@@H](C)O)O1)[C@H]2C", "note": "[Oligomycin, oligomycin]", "values": [{"measurement": "effect of oligomycin by itself on cell death", "setting": "PC-12 cells [2]; oligomycin alone", "value": "inactive by itself"}, {"measurement": "effect of oligomycin by itself on cell death", "setting": "U-937 cells [5]; 1 μM oligomycin alone", "value": "inactive by itself"}]}
{"smiles": "CN[C@@H]1C[C@H]2O[C@@](C)([C@@H]1OC)n1c3ccccc3c3c4c(c5c6ccccc6n2c5c31)C(=O)NC4", "note": "[STS, staurosporine]", "values": [{"measurement": "necrosis", "setting": "PC-12 cells [2]; 1.25 μM STS with 1 μM oligomycin", "value": "about 70%"}, {"measurement": "apoptosis", "setting": "PC-12 cells [4]; 1.25 μM STS alone, compared to control", "value": "about 73%"}]}
{"smiles": "Cc1ccc(S(=O)(=O)N[C@@H](Cc2ccccc2)C(=O)CCl)cc1", "note": "[TPCK]", "values": [{"measurement": "band of protease activity in presence of inhibitor", "setting": "elastase-like activity [7]; [10]", "value": "not"}, {"measurement": "band of protease activity in presence of inhibitor", "setting": "elastase-like activity [7]; [11]", "value": "not"}]}
{"smiles": "COC(=O)CCC(=O)N[C@@H](C)C(=O)N[C@@H](C)C(=O)N1CCC[C@H]1C(=O)N[C@H](C(=O)CCl)C(C)C", "note": "[elastase inhibitor III, MeOSuc-Ala-Ala-Pro-Val-CMK] (MeOSuc-AAPV-CH2Cl)", "values": [{"measurement": "cell damage by inhibitor alone", "setting": "U-937 cells [8]", "value": "did not cause any cell damage"}]}
{"smiles": "CC(C)C[C@H](NC(=O)N[C@H](C(=O)N[C@@H](CCC(N)=O)C(=O)N[C@@H](C)C=O)[C@@H]1CCNC(=N)N1)C(=O)O", "note": "[elastinal]", "values": [{"measurement": "band of protease activity in presence of inhibitor", "setting": "elastase-like activity [7]; [10]", "value": "disappeared"}, {"measurement": "band of protease activity in presence of inhibitor", "setting": "elastase-like activity [7]; [11]", "value": "disappeared"}, {"measurement": "effect on anti-Fas-induced apoptotic and necrotic cell death", "setting": "U-937 cells [5]", "value": "had no effect"}]}
